Experimental findings from the NIST ThermoML archive (doi:10.1007/s10765-014-1740-z) are described below.

The structures appear in SMILES notation. Numbers after ± are expanded uncertainties.

The conditions of this data set: Crystal; visual observation.

Regarding `O=c1cc(-c2ccccc2)oc2cc(O)c(O)c(O)c12` [baicalein], the Triple point temperature was found to be 537 ± 10 K.
